# Assay results as given in patent publication US7138361B2, “Herbicidal heterocycles” (E. I. du Pont de Nemours and Company, priority 2000, dated 2006).
# How the values were obtained:
# Assay type in all cases: in vivo
# [1] = tested on: rice (Oryza saliva); experiment: Test C flooded paddy test; settings: for Rice plant response rating: scale 0 to 100, 0 no effect, 100 complete control
# Procedure: (§1) At the same time, plants selected from these crop and weed species and also winter barley (Hordeum vulgare), blackgrass (Alopecurus myosuroides), canary grass (Phalaris minor), chickweed (Stellaria media), downy brome (Bromus tectorum), green foxtail (Setaria viridis), Italian ryegrass (Lolium multiflorum), wheat (Triticum aestivum), wild oat (Avena fatua) and windgrass (Apera spica-venti) were treated with postemergence applications of some of the test chemicals formulated in the same manner. Plants ranged in height from 2 to 18 cm (1- to 4-leaf stage) for postemergence treatments. Plant species in the flooded paddy test consisted of rice (Oryza saliva), smallflower flatsedge (Cyperus difformis), duck salad (Heteranthera limosa) and barnyardgrass (Echinochloa crus-galli) grown to the 2-leaf stage for testing. Treated plants and controls were maintained in a greenhouse for 12 to 14 days, after which time all species were compared to controls and visually evaluated. Plant response ratings, summarized in Table C, are based on a scale of 0 to 100 where 0 is no effect and 100 is complete control. A dash (-) response means no test result.
# [2] = tested on: duck salad (Heteranthera limosa); experiment: Test C flooded paddy test; settings: for Ducksalad plant response rating: scale 0 to 100, 0 no effect, 100 complete control
# Procedure: as §1
# [3] = tested on: smallflower flatsedge (Cyperus difformis); experiment: Test C flooded paddy test; settings: for Flatsedge plant response rating: Flooded Paddy, scale 0 to 100, 0 no effect, 100 complete control; for Plant response rating, Flatsedge: scale 0 to 100 (0 no effect, 100 complete control)
# Procedure: as §1
# [4] = tested on: barnyardgrass (Echinochloa crus-galli); experiment: Test C flooded paddy test; settings: for Barnyardgrass plant response rating: scale 0 to 100, 0 no effect, 100 complete control
# Procedure: as §1
# [5] = tested on: rice (Oryza saliva); experiment: Test B preemergence
# From the text: (§2) Seeds selected from barnyardgrass (Echinochloa crus-galli), Surinam grass (Brachiaria decumbens), cocklebur (Xanthium strumarium), corn (Zea mays), crabgrass (Digitaria sanguinalis), giant foxtail (Setaria faberii), lambsquarters (Chenopodium album), morning glory (Ipomoea hederacea), pigweed (Amaranthus retroflexus), rice (Oryza saliva) and velvetleaf (Abutilon theophrasti) were planted and treated preemergence with test chemicals formulated in a non-phytotoxic solvent mixture which included a surfactant.
# (§3) At the same time, plants selected from these crop and weed species and also blackgrass (Alopecurus myosuroides), wheat (Triticum aestivum) and wild oat (Avena fatua) were treated with postemergence applications of test chemicals formulated in the same manner. Plants ranged in height from 2 to 18 cm (1- to 4-leaf stage) for postemergence treatments. Plant species in the flooded paddy test consisted of rice (Oryza saliva), smallflower flatsedge (Cyperus difformis), duck salad (Heteranthera limosa) and barnyardgrass (Echinochloa crus-galli) grown to the 2-leaf stage for testing. Treated plants and controls were maintained in a greenhouse for 13 to 15 days, after which time all species were compared to controls and visually evaluated. Plant response ratings, summarized in Table B, are based on a scale of 0 to 100 where 0 is no effect and 100 is complete control. A dash (-) response means no test result.
# [6] = tested on: pigweed (Amaranthus retroflexus); experiment: Test B preemergence
# From the text: as §2, §3
# [7] = tested on: corn (Zea mays); experiment: Test B preemergence
# From the text: as §2, §3
# [8] = tested on: morning glory (Ipomoea hederacea); experiment: Test B preemergence
# From the text: as §2, §3
# [9] = tested on: crabgrass (Digitaria sanguinalis); experiment: Test B preemergence
# From the text: as §2, §3
# [10] = tested on: Surinam grass (Brachiaria decumbens); experiment: Test B preemergence
# From the text: as §2, §3
# [11] = tested on: cocklebur (Xanthium strumarium); experiment: Test B preemergence
# From the text: as §2, §3
# [12] = tested on: giant foxtail (Setaria faberii); experiment: Test B preemergence
# From the text: as §2, §3
# [13] = tested on: lambsquarters (Chenopodium album); experiment: Test B preemergence
# From the text: as §2, §3
# [14] = tested on: barnyardgrass (Echinochloa crus-galli); experiment: Test B preemergence
# From the text: as §2, §3
# [15] = tested on: velvetleaf (Abutilon theophrasti); experiment: Test B preemergence
# From the text: as §2, §3
# [16] = tested on: corn (Zea mays); experiment: Test B postemergence; settings: 13 to 15 days
# From the text: as §2, §3
# [17] = tested on: crabgrass (Digitaria sanguinalis); experiment: Test B postemergence; settings: 13 to 15 days
# From the text: as §2, §3
# [18] = tested on: Surinam grass (Brachiaria decumbens); experiment: Test B postemergence; settings: 13 to 15 days
# From the text: as §2, §3
# [19] = tested on: giant foxtail (Setaria faberii); experiment: Test B postemergence; settings: 13 to 15 days
# From the text: as §2, §3
# [20] = tested on: barnyardgrass (Echinochloa crus-galli); experiment: Test B postemergence; settings: 13 to 15 days
# From the text: as §2, §3
# [21] = tested on: blackgrass (Alopecurus myosuroides); experiment: Test B postemergence; settings: 13 to 15 days
# From the text: as §2, §3
# [22] = tested on: pigweed (Amaranthus retroflexus); experiment: Test B postemergence; settings: Rate 500 g/ha, scale 0 to 100, 0 is no effect, 100 is complete control, 13 to 15 days
# From the text: as §2, §3
# [23] = tested on: morning glory (Ipomoea hederacea); experiment: Test B postemergence; settings: Rate 500 g/ha, scale 0 to 100, 0 is no effect, 100 is complete control, 13 to 15 days
# From the text: as §2, §3
# [24] = tested on: wild oat (Avena fatua); experiment: Test B postemergence; settings: Rate 500 g/ha, scale 0 to 100, 0 is no effect, 100 is complete control, 13 to 15 days
# From the text: as §2, §3
# [25] = tested on: lambsquarters (Chenopodium album); experiment: Test B postemergence; settings: Rate 500 g/ha, scale 0 to 100, 0 is no effect, 100 is complete control, 13 to 15 days
# From the text: as §2, §3
# [26] = tested on: wheat (Triticum aestivum); experiment: Test B postemergence; settings: Rate 500 g/ha, scale 0 to 100, 0 is no effect, 100 is complete control, 13 to 15 days
# From the text: as §2, §3
# [27] = tested on: velvetleaf (Abutilon theophrasti); experiment: Test B postemergence; settings: Rate 500 g/ha, scale 0 to 100, 0 is no effect, 100 is complete control, 13 to 15 days
# From the text: as §2, §3
# [28] = flooded paddy test, Rate 62 g/ha, scale 0 to 100 (0 no effect, 100 complete control)
# [29] = flooded paddy test, Rate 125 g/ha, scale 0 to 100 (0 no effect, 100 complete control)
# [30] = flooded paddy test, Rate 62 g/ha
# [31] = flooded paddy test, Rate 125 g/ha
# [32] = preemergence, Rate 125 g/ha, scale of 0 to 100 where 0 is no effect and 100 is complete control, 13 to 15 days
# [33] = Rate 125 g/ha, scale 0 (no effect) to 100 (complete control)
# [34] = Preemergence, Rate 500 g/ha, scale 0 to 100, 0 no effect, 100 complete control
# [35] = Rate 500 g/ha, scale 0 to 100, 0 is no effect, 100 is complete control
# [36] = Flooded Paddy, Rate 1000 g/ha, scale 0 to 100
# [37] = flooded paddy test, Rate 250 g/ha, scale 0 to 100 (0 no effect, 100 complete control)
# [38] = flooded paddy test, Rate 62 g/ha, visually evaluated after 12 to 14 days, 0 = no effect, 100 = complete control
compound,measurement,setting,value
CCCCC(C)c1ccn(C2OCN(c3cccc(OC(F)(F)F)c3)C2=O)n1 (stereo not drawn) [Compound 97],Rice plant response rating,"[1]; Flooded Paddy, Rate 500 g/ha",20
same,"Plant response rating, Rice",[1]; [28],0
same,"Plant response rating, Rice",[1]; [29],20
same,Ducksalad plant response rating,"[2]; Flooded Paddy, Rate 500 g/ha",0
same,"Plant response rating, Ducksalad",[2]; [28],0
same,"Plant response rating, Ducksalad",[2]; [29],0
same,Flatsedge plant response rating,[3]; Rate 500 g/ha,90
same,"Plant response rating, Flatsedge",[3]; [30],30
same,"Plant response rating, Flatsedge",[3]; [31],90
same,Barnyardgrass plant response rating,"[4]; Flooded Paddy, Rate 500 g/ha",100
same,"Plant response rating, Barnyardgrass",[4]; [28],0
same,"Plant response rating, Barnyardgrass",[4]; [29],40
same,"Plant response rating, Rice",[5]; [32],0
same,"Plant response rating, Pigweed",[6]; [32],0
same,"Plant response rating, Corn",[7]; [32],0
same,"Plant response rating, Morningglory",[8]; [32],0
same,"Plant response rating, Crabgrass",[9]; [32],20
same,"Plant response rating, Surinam grass",[10]; [32],0
same,"Plant response rating, Cocklebur",[11]; [32],0
same,"Plant response rating, Foxtail, Giant",[12]; [32],20
same,"Plant response rating, Lambsquarters",[13]; [32],20
same,"Plant response rating, Barnyardgrass",[14]; [32],30
same,"Plant response rating, Velvetleaf",[15]; [32],0
same,"Plant response rating, Corn",[16]; [33],0
same,"Plant response rating, Crabgrass",[17]; [33],0
same,"Plant response rating, Surinam grass",[18]; [33],0
same,"Plant response rating, Foxtail, Giant",[19]; [33],0
same,"Plant response rating, Barnyardgrass",[20]; [33],0
same,"Plant response rating, Blackgrass",[21]; [33],0
CCCCC(C)c1ccn(C2OCN(c3cccc(C(F)(F)F)c3)C2=O)n1 (stereo not drawn) [Compound 98],Rice plant response rating,"[1]; Flooded Paddy, Rate 250 g/ha",50
same,Rice plant response rating,"[1]; Flooded Paddy, Rate 500 g/ha",50
same,"Plant response rating, Rice",[1]; [28],0
same,"Plant response rating, Rice",[1]; [29],50
same,Ducksalad plant response rating,"[2]; Flooded Paddy, Rate 250 g/ha",0
same,Ducksalad plant response rating,"[2]; Flooded Paddy, Rate 500 g/ha",0
same,"Plant response rating, Ducksalad",[2]; [28],0
same,"Plant response rating, Ducksalad",[2]; [29],0
same,Flatsedge plant response rating,[3]; Rate 250 g/ha,90
same,Flatsedge plant response rating,[3]; Rate 500 g/ha,90
same,"Plant response rating, Flatsedge",[3]; [30],60
same,"Plant response rating, Flatsedge",[3]; [31],80
same,Barnyardgrass plant response rating,"[4]; Flooded Paddy, Rate 250 g/ha",30
same,Barnyardgrass plant response rating,"[4]; Flooded Paddy, Rate 500 g/ha",50
same,"Plant response rating, Barnyardgrass",[4]; [28],0
same,"Plant response rating, Barnyardgrass",[4]; [29],0
same,"Plant response rating, Rice",[5]; [34],30
same,"Plant response rating, Rice",[5]; [32],0
same,"Plant response rating, Pigweed",[6]; [34],40
same,"Plant response rating, Pigweed",[6]; [32],0
same,"Plant response rating, Corn",[7]; [34],0
same,"Plant response rating, Corn",[7]; [32],0
same,"Plant response rating, Morningglory",[8]; [34],0
same,"Plant response rating, Morningglory",[8]; [32],0
same,"Plant response rating, Crabgrass",[9]; [34],100
same,"Plant response rating, Crabgrass",[9]; [32],0
same,"Plant response rating, Surinam grass",[10]; [34],0
same,"Plant response rating, Surinam grass",[10]; [32],0
same,"Plant response rating, Cocklebur",[11]; [34],0
same,"Plant response rating, Cocklebur",[11]; [32],0
same,"Plant response rating, Foxtail, Giant",[12]; [34],90
same,"Plant response rating, Foxtail, Giant",[12]; [32],0
same,"Plant response rating, Lambsquarters",[13]; [34],100
same,"Plant response rating, Lambsquarters",[13]; [32],60
same,"Plant response rating, Barnyardgrass",[14]; [34],90
same,"Plant response rating, Barnyardgrass",[14]; [32],0
same,"Plant response rating, Velvetleaf",[15]; [34],0
same,"Plant response rating, Velvetleaf",[15]; [32],0
same,"Plant response rating, Pigweed",[22],100
same,"Plant response rating, Corn",[16]; [33],0
same,"Plant response rating, Corn",[16]; [35],0
same,"Plant response rating, Morningglory",[23],0
same,"Plant response rating, Crabgrass",[17]; [33],0
same,"Plant response rating, Crabgrass",[17]; [35],20
same,"Plant response rating, Wild Oat",[24],0
same,"Plant response rating, Surinam grass",[18]; [33],0
same,"Plant response rating, Surinam grass",[18]; [35],0
same,"Plant response rating, Foxtail, Giant",[19]; [33],0
same,"Plant response rating, Foxtail, Giant",[19]; [35],20
same,"Plant response rating, Lambsquarters",[25],80
same,"Plant response rating, Barnyardgrass",[20]; [33],0
same,"Plant response rating, Barnyardgrass",[20]; [35],0
same,"Plant response rating, Wheat",[26],0
same,"Plant response rating, Blackgrass",[21]; [33],0
same,"Plant response rating, Blackgrass",[21]; [35],0
same,"Plant response rating, Velvetleaf",[27],20
CC(C)(C)C1=NN(C2CCN(c3cccc(C(F)(F)F)c3)C2=O)CC1 (stereo not drawn) [Compound 135],"Plant response rating, Rice",[1]; [36],0
same,Rice plant response rating,"[1]; Flooded Paddy, Rate 500 g/ha",0
same,"Plant response rating, Rice",[1]; [29],0
same,"Plant response rating, Rice",[1]; [37],0
same,"Plant response rating (scale 0 to 100), Rice",[1]; [38],0
same,"Plant response rating, Ducksalad",[2]; [36],30
same,Ducksalad plant response rating,"[2]; Flooded Paddy, Rate 500 g/ha",0
same,"Plant response rating, Ducksalad",[2]; [29],0
same,"Plant response rating, Ducksalad",[2]; [37],0
same,"Plant response rating (scale 0 to 100), Ducksalad",[2]; [38],0
same,Flatsedge plant response rating,[3]; Rate 500 g/ha,90
same,Flatsedge plant response rating,"[3]; rate of this column group stands in head line r653, not shown (group before Rate 500 g/ha)",100
same,"Plant response rating, Flatsedge",[3]; [31],20
same,"Plant response rating, Flatsedge","[3]; flooded paddy test, Rate 250 g/ha",90
same,"Plant response rating (scale 0 to 100), Flatsedge",[3]; [38],0
same,"Plant response rating, Barnyardgrass",[4]; [36],30
same,Barnyardgrass plant response rating,"[4]; Flooded Paddy, Rate 500 g/ha",20
same,"Plant response rating, Barnyardgrass",[4]; [29],0
same,"Plant response rating, Barnyardgrass",[4]; [37],0
same,"Plant response rating (scale 0 to 100), Barnyardgrass",[4]; [38],0
